Measured values from patent US9790188B2, “Benzimidazole derivatives and uses thereof” (Whitehead Institute for Biomedical Research, priority 2013, dated 2017).
“Also recorded” adds a separate entry of the source.

Columns and labels:
Rsp5p = Rsp5p (Saccharomyces cerevisiae, UniProt P39940); details: pers. comm.; cited from earlier work
aSyn^A53T iPS neurons [1] = test: Nitrosative stress (NO sensor FL2) in patient iPS neurons; details: human cortical neurons from iPSCs of a patient carrying α-syn mutations
Description: Nitrosative stress was monitored by protein nitration levels using the 3-NT antibody. […] All data represented as mean±SEM (*: p<0.05; **: p<0.01, two tail t-test compared to control condition).

Bap2 = test: Western blot of proteinA-tagged Bap2; format: cell-based, yeast; details: Rsp5-dependent
α-syn = test: Western blot of α-syn levels in yeast; format: cell-based; details: α-syn-expressing yeast
Description: Protein analysis of α-syn-GFP was performed in NoTox, InTox, and HiTox strains with ABI1 treatment at indicated concentrations. Log phase CSM/2% raffinose cultures were induced with 2% galactose for 5 hours with DMSO or ABI1. Cultures were normalized to cell density and cell pellets prepared for SDS-PAGE. Cell pellets were boiled in SDS-loading dye for 15′, centrifuged, and resolved by 4-12% SDS-PAGE. […] From the same gel, total protein was detected by coomassie staining. Both blots and coomassie-stained gels were scanned using the Li-Cor Odyssey imaging system and quantitated. Values were expressed as α-syn normalized to total protein (FIG. 1E). Significance was determined using a one-way ANOVA with Tukey's test of significance.

FUS/TLS = test: Yeast growth rescue, FUS/TLS proteinopathy model; format: cell-based
Description: (§1) (A) Structure of lead compound ABI. (B) Dose-response curves showing the relative rescue of ABI (log2, μM) in five yeast proteinopathy models. Rescue is relative to a positive control compound as determined by growth (OD600). (C) Localization of α-syn-GFP in strains with increasing toxicity: NoTox, InTox, HiTox and HiTox treated with 10 μM ABI. […] (E) (Left panel) Western blot of α-syn-GFP in NoTox, InTox, and HiTox strains with anti-α-syn antibody. (Right panel) Quantitation of western blot (α-syn relative to total protein quantitated from a Coomassie gel and normalized to 100% for HiTo). **: P<0.01; and ***: P<0.001, according to one-way ANOVA and a Tukey's test.
(§2) Yeast strains expressing toxic proteins have been described previously (6, 9, 33, 34) (Table 1). All strains have either single or multiple inserts for galactose-inducible expression. In addition, all stains have either deletions of the Δpdr1::KanMX and Δpdr3::KanMX or Δpdr5::KanMX to reduce efflux of compounds and required compound dosing. Yeast were cultured in complete synthetic media (CSM) and an appropriate dropout (minus HIS or URA) to maintain plasmids if required. […]
(§3) Starting cultures for all dose-response assays were established as described above. […] Plates were then read with a Tecan Saphire plate reader at OD600.

aSyn^A53T iPS neurons [2] = test: ER protein trafficking (nicastrin, GCase, Endo H) in patient iPS neurons; details: human cortical neurons from iPSCs of a patient carrying α-syn mutations
Description: Trafficking from ER was assessed by probing for nicastrin and GCase with or without Endo H treatment. Data are normalized using corrected/A53T ratios established in FIG. 6 to more faithfully depict the biological significance of the small molecule effects (n=3). […] All data represented as mean±SEM (*: p<0.05; **: p<0.01, two tail t-test compared to control condition).
Trafficking from ER was assessed by probing for nicastrin and GCase with or without Endo H treatment.

WT yeast = test: Growth inhibition of wild-type yeast (dose-response); format: cell-based; details: at concentrations higher than those that rescue α-syn toxicity
Description: Source plates were assembled in 96 well plates using multichannel pipettes to dilute rows in 1.6-fold serial dilutions of CSMGal. […] For α-syn, the final starting OD600 was 0.02. Drug concentration ranges varied depending on efficacy, growth inhibition, and solubility in media. A Tecan EvoFreedom liquid handling robot was then used to transfer culture from 96 to 384 well format with each well being represented four times. Final well volume was 35 μL. Plates were then incubated in humidified containers at 30° C. for either 24 or 40 hours. Plates were then read with a Tecan Saphire plate reader at OD600.
Raw OD600 values were transformed to “Relative Growth” in WT cells or “% Maximum Rescue” in α-syn experiments. In WT cells, the well background was subtracted and all values were then normalized to 100% for the untreated condition. In α-syn rescue experiments, the well background was subtracted and the maximum rescue in the particular experiment was normalized to 100%.

htt72Q = test: Yeast growth rescue, htt72Q proteinopathy model; format: cell-based
Description: as §1, §2, §3

Sequence of Rsp5p (P39940 whole entry): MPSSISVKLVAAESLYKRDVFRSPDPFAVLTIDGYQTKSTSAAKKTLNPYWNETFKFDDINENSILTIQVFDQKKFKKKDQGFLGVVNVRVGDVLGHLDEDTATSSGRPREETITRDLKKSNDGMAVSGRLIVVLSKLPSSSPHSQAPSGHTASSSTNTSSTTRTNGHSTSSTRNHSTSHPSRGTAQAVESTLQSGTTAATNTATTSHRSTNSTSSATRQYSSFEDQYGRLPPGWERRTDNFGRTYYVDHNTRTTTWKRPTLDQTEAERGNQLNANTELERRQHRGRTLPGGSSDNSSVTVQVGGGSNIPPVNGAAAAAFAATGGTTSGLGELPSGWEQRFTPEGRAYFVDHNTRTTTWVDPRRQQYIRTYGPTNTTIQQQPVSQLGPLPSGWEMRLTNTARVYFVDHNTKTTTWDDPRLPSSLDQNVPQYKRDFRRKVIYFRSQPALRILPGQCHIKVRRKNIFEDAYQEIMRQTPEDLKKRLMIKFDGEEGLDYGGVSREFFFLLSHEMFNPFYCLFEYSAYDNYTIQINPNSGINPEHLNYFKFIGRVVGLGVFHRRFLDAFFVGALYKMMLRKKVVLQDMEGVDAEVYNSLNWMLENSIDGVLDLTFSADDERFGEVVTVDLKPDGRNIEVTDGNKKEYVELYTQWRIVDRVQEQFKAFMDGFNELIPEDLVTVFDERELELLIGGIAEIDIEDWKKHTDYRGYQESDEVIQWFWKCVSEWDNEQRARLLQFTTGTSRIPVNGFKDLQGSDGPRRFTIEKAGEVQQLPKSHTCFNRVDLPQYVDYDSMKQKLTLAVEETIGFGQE

Cc1cccc(-n2cnc3cc(C(=O)NCc4ccccc4Cl)ccc32)c1 [ABI, N-(2-chlorobenzyl)-1-(m-tolyl)-1H-benzo[d]imidazole-5-carboxamide]
ubiquitination of recombinant Rsp5p in vitro (Rsp5p): did not enhance ubiquitination | nitrosative stress (aSyn^A53T iPS neurons [1]): reduced nitrosative stress | Bap2 levels / degradation (Bap2): promotes Bap2 degradation | α-syn levels (α-syn): did not reverse α-syn phenotypes by reducing α-syn levels; also recorded: did not detect changes | efficacy against FUS/TLS (FUS/TLS): not, however, effective | ER-to-Golgi protein trafficking defect (aSyn^A53T iPS neurons [2]): ameliorated an ER-to-Golgi protein trafficking defect | growth inhibition of wild-type cells (WT yeast): inhibited the growth of wild-type cells | efficacy against htt72Q (htt72Q): not, however, effective | melting point: 129 to 131 °C
